Data taken from paper PMC11117333, “Design and synthesis of new dihydropyrimidine/sulphonamide hybrids as promising anti-inflammatory agents via dual mPGES-1/5-LOX inhibition” (Frontiers in Chemistry, 2024).
Several values for one entry are separate records, joined by “and”; a condition that tells them apart may be missing. Identical values can stand only once. Like-named read-outs stand apart in the source and are kept apart here. Marks after values point to notes of the source that are not given here.

Key:
[1] = biological target: T1, mPGES-1 (Homo sapiens, UniProt O14684); conditions: cited from earlier work; for IC50: ref Lauro et al., 2014
T1 construct: microsomal fractions from IL-1β-stimulated A549 cells served as the enzyme source; endogenous in cells; host or cells: A549 cells (IL-1β-stimulated), microsomal fraction
T1 sequence (O14684 1-152): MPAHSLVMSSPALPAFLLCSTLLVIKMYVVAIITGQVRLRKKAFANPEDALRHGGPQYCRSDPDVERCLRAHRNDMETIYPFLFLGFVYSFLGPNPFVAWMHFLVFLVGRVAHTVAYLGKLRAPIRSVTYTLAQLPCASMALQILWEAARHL

[2] = test system: PGE2 production in A549 cells; design: method as in Kim et al., 2021; conditions: ref Kim et al., 2021; cited from earlier work
[3] = test system: 5-LOX; conditions: cited from earlier work
[4] = biological target: T1, mPGES-1; assay: Cell-free mPGES-1 enzyme assay (microsomal fractions from IL-1β-stimulated A549 cells); assay type: biochemical; conditions: cell-free, A549 microsomes
Procedure: A cell-free assay was conducted to evaluate the capacity of compounds […] to act as inhibitors of mPGES-1. In this assay, microsomal fractions from IL-1β-stimulated A549 cells served as the enzyme source ([Gürses et al., 2021]). During the initial screening phase, compounds 3a–j were examined for their effects on mPGES-1 at a concentration of 10 µM.
Microsomal measures of A549 cells expressing mPGES-1 were made in accordance with prior research findings ([Koeberle et al., 2008]). These cells were cultivated in Dulbecco’s Modified Eagle Medium and resuspended in a homogenization buffer. Subsequently, the microsomes were subjected to pre-incubation with either assessed compounds or a carrier solution containing 0.1 percent DMSO. The enzymatic process was halted by introducing FeCl3, citric acid, and 11-PGE2 as an internal standard. The quantities of Prostaglandin E2 (PGE2) were measured via RP-HPLC methodologies.

[5] = biological target: T2, soya bean 5-LOX (Glycine max, UniProt P08170); assay: 5-LOX enzyme assay (EIA kit, Cayman 760700); assay type: biochemical
T2 construct: purchased Cayman Chemical, Ann Arbor, Michigan, USA 760700
T2 sequence (P08170 1-839): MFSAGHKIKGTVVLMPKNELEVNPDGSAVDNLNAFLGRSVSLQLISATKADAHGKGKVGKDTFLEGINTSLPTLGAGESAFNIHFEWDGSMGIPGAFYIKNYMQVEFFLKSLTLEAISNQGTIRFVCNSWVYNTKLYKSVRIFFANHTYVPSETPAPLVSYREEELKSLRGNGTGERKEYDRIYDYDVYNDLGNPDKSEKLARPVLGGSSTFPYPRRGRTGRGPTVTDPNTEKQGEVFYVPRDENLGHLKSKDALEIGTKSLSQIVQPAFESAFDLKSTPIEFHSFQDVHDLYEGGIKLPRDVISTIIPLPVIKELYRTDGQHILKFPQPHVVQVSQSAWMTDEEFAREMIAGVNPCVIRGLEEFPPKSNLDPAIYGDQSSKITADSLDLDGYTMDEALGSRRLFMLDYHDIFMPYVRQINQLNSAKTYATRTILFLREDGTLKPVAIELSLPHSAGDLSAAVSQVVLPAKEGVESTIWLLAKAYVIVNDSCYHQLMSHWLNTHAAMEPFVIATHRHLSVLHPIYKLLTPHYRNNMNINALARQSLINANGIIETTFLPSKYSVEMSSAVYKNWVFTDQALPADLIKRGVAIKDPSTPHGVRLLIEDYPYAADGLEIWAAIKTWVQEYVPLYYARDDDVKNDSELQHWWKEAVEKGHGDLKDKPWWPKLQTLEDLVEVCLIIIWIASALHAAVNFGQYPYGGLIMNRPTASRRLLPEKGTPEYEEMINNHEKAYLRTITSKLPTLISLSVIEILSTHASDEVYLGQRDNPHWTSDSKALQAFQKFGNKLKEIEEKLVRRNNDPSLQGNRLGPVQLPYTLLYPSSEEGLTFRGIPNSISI
Source text: The capacity of compounds 3a–j to inhibit the enzyme 5-lipoxygenase (5-LOX) has been investigated ([Youssif et al., 2019]).
The study used an enzyme immune assay (EIA) kit (catalogue no. 760700, Cayman Chemical, Ann Arbor, Michigan, USA) to evaluate the inhibitory activity of target analogues against soya bean 5-LOX, ensuring compliance with manufacturer’s instructions and protocols, and calculating IC50 values ([Roschek et al., 2009]).

[6] = test system: carrageen-induced paw edema; assay: Carrageenan-induced paw edema bioassay; assay type: in vivo, rat; design: concentration or dose not given beside the values
Procedure: The compounds’ efficacy was measured as edema inhibition percentage (EI %) after 1, 3, and 5 h of carrageenan injection vs. the conventional medicine Celecoxib.
Compounds 3c, 3e, 3h, and 3j were chosen for in vivo anti-inflammatory testing using the carrageen-induced paw edema bioassay method described by [Winter et al, (1962)]. The compounds’ efficacy was measured as edema inhibition percentage (EI%) after 1, 3, and 5 h of carrageenan injection vs. the conventional medicine Celecoxib.

[7] = test system: PGE2; assay: Rat serum PGE2 after carrageenan (ELISA); assay type: in vivo; conditions: 4 hours after subcutaneous carrageenan
Source text: Inhibiting PGE2 is a crucial strategy in anti-inflammatory therapy, playing a pivotal role in managing inflammation and its associated conditions.
(§1) In this study, specializing ELISA kits were used to determine the concentration of inflammatory cytokines PGE2, IL-6, and TNF-α. The study’s findings were examined in accordance with the instructions provided by the manufacturer, and measurements were taken based on the optical density at 450 nm.

[8] = test system: TNF-α; assay: Rat serum TNF-α after carrageenan (ELISA); assay type: in vivo
Source text: as §1

[9] = test system: IL-6; assay: Rat serum IL-6 after carrageenan (ELISA); assay type: in vivo
Source text: as §1

[10] = test system: rat intestinal mucosa; assay: Gastric ulcerogenic activity (macroscopic inspection); assay type: in vivo; design: Score: Severity lesions: scale not given here; conditions: oral 10 mg/kg
Procedure: The two most common side effects of long-term NSAID use are gastrointestinal erosion and ulcers ([Hendawy et al., 2021]). As a result, we were curious about the ulcerogenic potential of the most efficacious drugs, 3e and 3j, when given orally. The ulcerogenic effects of 3e and 3j were assessed by macroscopic inspection of rat intestinal mucosa after oral administration of 10 mg/kg of 3e, 3j, indomethacin, and celecoxib ([Manivannan and Chaturvedi, 2011]).
The ulcerogenic effects of compounds 3e and 3j were evaluated by macroscopic examination of rat intestinal mucosa after oral administration of 10 mg/kg of these compounds and indomethacin and celecoxib ([Manivannan and Chaturvedi, 2011]). See Appendix A for details.

SMILES: CCOC(=O)C1=C(C(=O)c2ccc(OC)cc2)C(c2ccc(-c3cccc(C(F)(F)F)c3)o2)NC(=O)N1C (stereo not shown) [II]
- IC50 [1]: 7.56 ± 0.94 µM

SMILES: CC1=C(C(=O)OCc2ccccc2)C(c2ccc(-c3cccc(C(F)(F)F)c3)o2)NC(=O)N1CCC(=O)O (stereo not shown) [III]
- fold higher activity than compound I (mPGES-1) ([1]; ref Terracciano et al., 2015): 10 fold

SMILES: O=C(Nc1ccc(OCCCCc2ccccc2)cc1)N(Cc1ccccc1)S(=O)(=O)c1ccc(Cl)cc1 [VI]
- IC50 [2]: 0.24 µM
- fold more active than the standard inhibitor MK-886 (PGE2 production) [2]: about 9 fold

SMILES: COC(=O)C1=C(C)NC(Nc2cc(O)cc(Cl)c2)=NC1c1ccc(Cl)cc1 (stereo not shown) [V]
- 5-LOX % inhibition ([3]; 2.46 µM concentration, ref Venugopala et al., 2015): 81.19%

SMILES: COc1ccc(C2NC(=S)NC(C)=C2C(=O)Nc2ccc(S(N)(=O)=O)cc2)cc1OC (stereo not shown) [Compound 3e, 4-[3,4-dimethoxyphenyl]-6-methyl-N-[4-sulfamoylphenyl]-2-thioxo-1,2,3,4-tetrahydropyrimidine-5-carboxamide]
- remaining activity at 10 µM ([4]; 10 µM compound, read-out: mPGES-1 RA (%) 10 µM (residual activity percentage)): 28.6%
- IC50 [4]: 0.97 µM
- IC50 [5]: 2.07 µM
- % Of edema inhibition 1 h ([6]; 1 h after carrageenan injection): 35%
- % Of edema inhibition 3 h ([6]; 3 h after carrageenan injection): 57%
- % Of edema inhibition 5 h ([6]; 5 h after carrageenan injection): 65%
- PGE2 %inhibition [7]: 72.70% and 73%
- PGE2 serum concentration ([7]; mean ± SE): 83.50 ± 2.30 ^b pg/mL
- TNFα %inhibition [8]: 67%
- TNFα serum concentration ([8]; mean ± SE): 78.10 ± 2.20 ^b pg/mL
- IL-6 %inhibition [9]: 75%
- IL-6 serum concentration ([9]; mean ± SE): 94.10 ± 2.75 ^b pg/mL
- Score: No. of gastric ulcers [10]: 0.60 ± 0.01
- Score: Severity lesions [10]: 1.00 ± 0.01
- Ulceration in the isolated rat stomach (in words) [10]: mild hyperemia but no widespread ulceration
- melting point: 272 to 274 °C

SMILES: COc1ccc2c(c1)c(CC(=O)NS(=O)(=O)c1ccc(C)cc1)c(C)n2C(=O)c1ccc(Cl)cc1 [VII]
- IC50 ([3]; ref Elkady et al., 2012): 2.9 µM

SMILES: O=C(Cc1cn(-c2ccccc2)nc1-c1ccc(Cl)cc1)NS(=O)(=O)c1ccc(Cl)cc1 [VIII]
- folds more potent than lonazolac calcium against mPGES-1 ([1]; ref Elkady et al., 2012): 19 fold
- IC50 ([3]; ref Elkady et al., 2012): 2.9 µM
- folds more potent than lonazolac calcium against 5-LOX ([3]; ref Elkady et al., 2012): 20 fold

SMILES: CCOC(=O)CCSC1=NC(c2ccccc2)C=C(c2ccccc2)N1 (stereo not shown) [IV]
- 5-LOX % inhibition at 100 μg/mL ([3]; 100 μg/mL, ref Lokwani et al., 2015): 51.84%
- IC50 ([3]; ref Lokwani et al., 2015): 19.1 µM

SMILES: CCOC(=O)C1=C(C(=O)c2ccc(OC)cc2)C(c2ccc(-c3cccc(C(F)(F)F)c3)o2)NC(=O)N1 (stereo not shown) [I]
- IC50 [1]: 4.16 ± 0.47 µM
